Source: publication PMC6357153 (Viruses, 2019)
Values after ≈ are worked out from the molar mass of the structure shown.

Experiment: physchem

| Compound | solubility (pH 7.2, aqueous buffer) [µM] | solubility (water) [µM] |
| --- | --- | --- |
| CC[C@H](C)[C@H](NC(=O)[C@H](Cc1ccc(O)cc1)NC(=O)[C@H](CO)NC(=O)[C@H](CCC(=O)O)NC(=O)[C@H](CC(N)=O)NC(=O)[C@H](CC(C)C)NC(=O)[C@H](C)NC(=O)[C@H](CCCCN)NC(=O)[C@@H](NC(=O)[C@@H](NC(=O)[C@H](CCC(N)=O)NC(=O)[C@H](CCC(N)=O)NC(=O)[C@H](CC(C)C)NC(=O)[C@H](CO)NC(=O)[C@H](CC(C)C)NC(=O)[C@H](CCSC)NC(=O)[C@H](CCC(=O)O)NC(=O)[C@H](Cc1ccc(O)cc1)NC(=O)[C@@H](NC(=O)[C@H](CC(C)C)NC(=O)[C@H](CC(=O)O)NC(=O)[C@H](CC(C)C)NC(=O)[C@H](CC(C)C)NC(=O)[C@@H](NC(=O)[C@@H](NC(=O)[C@H](CC(N)=O)NC(=O)[C@@H](NC(=O)[C@H](CCC(N)=O)NC(=O)[C@@H](NC(=O)[C@H](CC(C)C)NC(=O)[C@@H](N)CO)[C@@H](C)O)[C@@H](C)CC)[C@@H](C)O)[C@@H](C)O)[C@@H](C)O)C(C)C)C(C)C)C(=O)N[C@@H](CC(=O)O)C(=O)N[C@@H](CC(C)C)C(=O)N[C@@H](CCCCN)C(=O)N[C@@H](CCC(=O)O)C(=O)N[C@@H](CC(C)C)C(=O)O [MERS-HR2P, reference compound] | 105 (≈ 435 µg/mL) | 29 (≈ 120 µg/mL) |
| CC[C@H](C)[C@H](NC(=O)[C@H](Cc1ccc(O)cc1)NC(=O)[C@H](CO)NC(=O)[C@H](CC(=O)O)NC(=O)[C@H](CC(N)=O)NC(=O)[C@H](CC(C)C)NC(=O)[C@H](CCC(N)=O)NC(=O)[C@H](CCCCN)NC(=O)[C@@H](NC(=O)[C@@H](NC(=O)[C@H](CCC(=O)O)NC(=O)[C@H](CCC(N)=O)NC(=O)[C@H](CC(C)C)NC(=O)[C@H](CCSC)NC(=O)[C@H](C)NC(=O)[C@H](CCSC)NC(=O)[C@H](CCC(=O)O)NC(=O)[C@H](CC(=O)O)NC(=O)[C@H](CO)NC(=O)[C@H](CC(C)C)NC(=O)[C@H](CC(=O)O)NC(=O)[C@H](CC(C)C)NC(=O)[C@H](CC(C)C)NC(=O)[C@@H](NC(=O)[C@@H](NC(=O)[C@H](CC(N)=O)NC(=O)[C@@H](NC(=O)[C@H](CCCCN)NC(=O)[C@H](CO)NC(=O)[C@@H](NC(=O)[C@@H](N)CCC(=O)O)[C@@H](C)CC)[C@@H](C)CC)[C@@H](C)O)[C@@H](C)O)C(C)C)C(C)C)C(=O)N[C@@H](CC(=O)O)C(=O)N[C@@H](CC(C)C)C(=O)N[C@@H](CCCCN)C(=O)N[C@@H](CCC(=O)O)C(=O)N[C@@H](CC(C)C)C(=O)O [HKU4-HR2P2] | 2920 (≈ 12100 µg/mL) | 150 (≈ 623 µg/mL) |
| CC[C@H](C)[C@H](NC(=O)[C@H](Cc1ccc(O)cc1)NC(=O)[C@H](CO)NC(=O)[C@H](CC(=O)O)NC(=O)[C@H](CC(N)=O)NC(=O)[C@H](CC(C)C)NC(=O)[C@H](CCC(N)=O)NC(=O)[C@H](CCCCN)NC(=O)[C@@H](NC(=O)[C@@H](NC(=O)[C@H](CCC(=O)O)NC(=O)[C@H](CCC(N)=O)NC(=O)[C@H](CC(C)C)NC(=O)[C@H](CCSC)NC(=O)[C@H](C)NC(=O)[C@H](CCSC)NC(=O)[C@H](CCC(=O)O)NC(=O)[C@H](CC(=O)O)NC(=O)[C@H](CO)NC(=O)[C@H](CC(C)C)NC(=O)[C@H](CC(=O)O)NC(=O)[C@H](CC(C)C)NC(=O)[C@H](CC(C)C)NC(=O)[C@@H](NC(=O)[C@@H](NC(=O)[C@H](CC(N)=O)NC(=O)[C@@H](NC(=O)[C@H](CCCCN)NC(=O)[C@H](CO)NC(=O)[C@@H](NC(=O)[C@H](CCC(=O)O)NC(=O)[C@H](C)NC(=O)[C@H](Cc1ccccc1)NC(=O)[C@H](CC(N)=O)NC(=O)[C@@H]1CCCN1C(=O)CN)[C@@H](C)CC)[C@@H](C)CC)[C@@H](C)O)[C@@H](C)O)C(C)C)C(C)C)C(=O)O [HKU4-HR2P1] | 1570 (≈ 6340 µg/mL) | 651 (≈ 2630 µg/mL) |
| CC[C@H](C)[C@H](NC(=O)[C@H](Cc1ccc(O)cc1)NC(=O)[C@H](CO)NC(=O)[C@H](CC(=O)O)NC(=O)[C@H](CC(N)=O)NC(=O)[C@H](CC(C)C)NC(=O)[C@H](CCC(N)=O)NC(=O)[C@H](CCCCN)NC(=O)[C@@H](NC(=O)[C@@H](NC(=O)[C@H](CCC(=O)O)NC(=O)[C@H](CCC(N)=O)NC(=O)[C@H](CC(C)C)NC(=O)[C@H](CCSC)NC(=O)[C@H](C)NC(=O)[C@H](CCSC)NC(=O)[C@H](CCC(=O)O)NC(=O)[C@H](CC(=O)O)NC(=O)[C@H](CO)NC(=O)[C@H](CC(C)C)NC(=O)[C@H](CC(=O)O)NC(=O)[C@@H](N)CC(C)C)C(C)C)C(C)C)C(=O)N[C@@H](CC(=O)O)C(=O)N[C@@H](CC(C)C)C(=O)N[C@@H](CCCCN)C(=O)N[C@@H](CCC(=O)O)C(=O)N[C@@H](CC(C)C)C(=O)NCC(=O)N[C@@H](CC(N)=O)C(=O)N[C@@H](Cc1ccc(O)cc1)C(=O)N[C@H](C(=O)N[C@@H](Cc1ccc(O)cc1)C(=O)N[C@@H](Cc1ccc(O)cc1)C(=O)N[C@@H](CC(N)=O)C(=O)N[C@@H](CCCCN)C(=O)N[C@@H](Cc1c[nH]c2ccccc12)C(=O)O)[C@@H](C)O [HKU4-HR2P3] | 118 (≈ 513 µg/mL) | 1670 (≈ 7270 µg/mL) |
